Counter-ions that a name gives are not always drawn.

The nature of assay [1]: Inhibition of benzylamine binding to Benzylamine oxidase of porcine serum.
Assay [2] has as its target Diamine oxidase (Sus scrofa). The experiment in a line: Inhibition of putrescine binding to against Diamine oxidase of porcine kidney.

By IC50 is commonly meant the concentration that inhibits the measured activity by half. Regarding `CC(C)Nc1cnccc1CN` [4-(aminomethyl)-N-isopropylpyridin-3-amine dihydrochloride], in assay [1], the concentration for half-maximal inhibition (IC50) amounted to 100 µM. On the same count and under the same terms, for `CCNc1cncc(N(C)CC)c1CN` [4-(aminomethyl)-N-ethyl-5-[ethyl(methyl)-lambda~5~-azanyl]pyridin-3-amine dihydrochloride] the value was 0.02 µM. Take `CC(C)(C)Sc1cncc(SC(C)(C)C)c1CN`: the figures for the IC50 in assay [1] and in assay [2] were 1.6 µM and over 1000 µM, respectively. In the case of `NCc1ccncc1N(C1CCCC1)C1CCCC1` [4-(aminomethyl)-N,N-dicyclopentylpyridin-3-amine dihydrochloride], in assay [1], the concentration for half-maximal inhibition (IC50) was 100 µM. The same measure, in the same setting: for `NCc1c(OCCCCO)cncc1OCCCCO` [4-{[4-(aminomethyl)-5-(4-hydroxybutoxy)pyridin-3-yl]oxy}butan-1-ol dihydrochloride] the value was 0.15 µM. The same measure, in the same setting: next, `CNc1cnccc1CN` [4-(aminomethyl)-N-methylpyridin-3-amine dihydrochloride]: 8 µM; `CCOc1cncc(OCC)c1CN` [(3,5-diethoxypyridin-4-yl)methylamine dihydrochloride]: 0.17 µM.

On to `CC(C)Nc1cncc(N(C)C(C)C)c1CN` [4-(aminomethyl)-N-isopropyl-5-[isopropyl(methyl)-lambda~5~-azanyl]pyridin-3-amine dihydrochloride], for which the IC50 in assay [1] is over 0.1 µM; in assay [2], 1 µM. With `CNc1ccccc1CN` [N-[2-(aminomethyl)phenyl]-N-methylamine dihydrochloride], the concentration for half-maximal inhibition (IC50) in assay [1] is over 100 µM. `NCc1ccncc1NCC1CCCCC1` [4-(aminomethyl)-N-(cyclohexylmethyl)pyridin-3-amine dihydrochloride hydrate]: the IC50 in assay [1] was 5.6 µM.

Compound `CCCNc1cncc(N(C)CCC)c1CN` [4-(aminomethyl)-5-[methyl(propyl)-lambda~5~-azanyl]-N-propylpyridin-3-amine dihydrochloride] gave an IC50 in assay [1] of 350 µM. On to `CNc1cncc(NC)c1CN` [4-(aminomethyl)-N-methyl-5-(methyl-lambda~5~-azanyl)pyridin-3-amine dihydrochloride], for which the IC50 in assay [1] stood at 1.7 µM; in assay [2] it was 0.12 µM.

Consider `NCc1ccncc1NC1CC1` [4-(aminomethyl)-N-cyclopropylpyridin-3-amine dihydrochloride hydrate], for which the half-maximal inhibitory concentration (IC50) in assay [1] was over 100 µM.

In assay [1], `NCc1ccncc1N` [4-(aminomethyl)pyridin-3-amine dihydrochloride] had a half-maximal inhibitory concentration (IC50) of 16 µM. Same read-out and setting: next, `CCSc1cncc(SCC)c1CN`: 0.13 µM; `CCOc1cncc(OCc2ccccc2)c1CN` [[3-(benzyloxy)-5-ethoxypyridin-4-yl]methylamine dihydrochloride]: 5 µM. On the same count and under the same terms, for `CCNc1cnccc1CN` [4-(aminomethyl)-N-ethylpyridin-3-amine dihydrochloride] the value was 2 µM. Regarding `NCc1ccncc1NC1CCCCCC1` [4-(aminomethyl)-N-cycloheptylpyridin-3-amine dihydrochloride hydrate], the IC50 in assay [1] was found to be 79 µM. Regarding `NCc1c(OCCO)cncc1OCCO` [2-{[4-(aminomethyl)-5-(2-hydroxyethoxy)pyridin-3-yl]oxy}ethanol dihydrochloride trihydrate], in assay [1], the IC50 came to 3.2 µM.

`NCc1ccncc1NC1CCCC1` [4-(aminomethyl)-N-cyclopentylpyridin-3-amine dihydrochloride] gave a 50% inhibitory concentration (IC50) in assay [1] of 16 µM.

For the compound `CNc1cncc(N(C)C)c1CN` [4-(aminomethyl)-5-(dimethyl-lambda~5~-azanyl)-N-methylpyridin-3-amine dihydrochloride dihydrate], the results for the IC50 in assay [1] and in assay [2] were 0.44 µM and 0.061 µM, respectively.

Source of the values: BindingDB's records for doi:10.1021/jm0408316 (University of Genoa, 2005).
